This is an account of results in patent US6750228B1, “Aromatic sulfone hydroxamic acid metalloprotease inhibitor” (priority 1997, dated 2004).

SMILES strings stand for the structures. A value given as a limit tells only on which side of the number the result lay.

Common to all, as to assay: biochemical
One test deals with T1, MMP-2 (Homo sapiens, UniProt P08253).
T1 construct: made in house; provided by Dr. Gregory Goldberg, Washington University
T1 sequence (P08253 110-660): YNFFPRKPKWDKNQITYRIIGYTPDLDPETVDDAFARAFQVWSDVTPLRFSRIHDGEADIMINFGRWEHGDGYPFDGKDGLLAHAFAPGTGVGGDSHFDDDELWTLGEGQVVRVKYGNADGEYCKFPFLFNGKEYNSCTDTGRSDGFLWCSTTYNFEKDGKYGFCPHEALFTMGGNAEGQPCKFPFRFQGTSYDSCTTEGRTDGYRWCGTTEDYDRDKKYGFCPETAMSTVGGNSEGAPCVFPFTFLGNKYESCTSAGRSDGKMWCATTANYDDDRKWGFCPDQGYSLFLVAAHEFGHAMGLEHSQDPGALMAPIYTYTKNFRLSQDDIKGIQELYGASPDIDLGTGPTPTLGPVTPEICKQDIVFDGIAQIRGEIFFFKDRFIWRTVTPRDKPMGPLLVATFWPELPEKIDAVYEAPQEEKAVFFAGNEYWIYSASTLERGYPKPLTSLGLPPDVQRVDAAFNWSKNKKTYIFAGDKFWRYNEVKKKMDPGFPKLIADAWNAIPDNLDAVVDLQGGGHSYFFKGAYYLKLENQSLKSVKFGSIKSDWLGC
Conditions: recombinant human MMP-2, MCA peptide substrate 4 μM, pH 7.5, room temperature; read-out: MMP-2 IC50. The essentials: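 APMA- or trypsin-activated human MMPs (MMP-1 from transfected HT-1080 cells, MMP-2 from transfected cells) preincubated with inhibitor in 1% DMSO at room temperature, then 4 μM MCA-Pro-Leu-Gly-Leu-Dpa-Ala-Arg-NH2 added in Tris/NaCl/CaCl2 buffer pH 7.5. IC50 from fluorescence reduction versus inhibitor concentration.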

For the next test, the target named is T2, MMP-1 (Homo sapiens, UniProt P03956).
T2 construct: made in house; host or cells: transfected HT-1080 cells (provided by Dr. Harold Welgus, Washington University)
T2 sequence (P03956 100-469): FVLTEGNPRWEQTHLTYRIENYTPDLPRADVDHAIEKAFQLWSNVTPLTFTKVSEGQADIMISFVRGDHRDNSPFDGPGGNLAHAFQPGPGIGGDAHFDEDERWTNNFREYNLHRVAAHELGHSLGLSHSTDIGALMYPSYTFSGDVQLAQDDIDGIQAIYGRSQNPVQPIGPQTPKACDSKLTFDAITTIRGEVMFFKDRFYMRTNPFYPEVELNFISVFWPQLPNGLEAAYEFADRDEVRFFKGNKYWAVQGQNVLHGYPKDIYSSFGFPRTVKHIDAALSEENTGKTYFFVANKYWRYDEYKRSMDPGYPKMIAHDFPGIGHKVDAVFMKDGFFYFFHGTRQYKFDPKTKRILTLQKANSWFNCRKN
The settings on record: recombinant human MMP-1, MCA peptide substrate 4 μM, pH 7.5, room temperature; read-out: MMP-1 IC50. The essentials: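 APMA- or trypsin-activated enzymes were preincubated with inhibitor for 5 min at room temperature, then the fluorogenic substrate MCA-Pro-Leu-Gly-Leu-Dpa-Ala-Arg-NH2 was added to a final 4 μM.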

The next test deals with T3, MMP-13 (Homo sapiens, UniProt P45452).
T3 construct: made in house; host or cells: baculovirus / insect cells
Conditions: recombinant human MMP-13, MCA peptide substrate 4 μM, pH 7.5, room temperature; read-out: MMP-13 IC50. The essentials: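 Assay buffer 100 mM Tris-HCl, 100 mM NaCl, 10 mM CaCl2, pH 7.5. Activated MMP + inhibitor, 5 min RT; then methoxycoumarin peptide substrate, 4 μM final. Readout fluorescence; IC50 calculated.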

Take `COc1ccc(S(=O)(=O)N2CCCN(c3ccc(S(=O)(=O)C4(C(=O)NO)CCOCC4)cc3)CC2)cc1` [Example 698]: the IC50 (usually the midpoint of a concentration-inhibition curve) was 700 nM at MMP-2, above 10000 nM at MMP-1 and 16.9 nM on MMP-13.
As to `O=C(NO)C1(S(=O)(=O)c2ccc(N3CCCN(S(=O)(=O)c4ccc(OC(F)(F)F)cc4)CC3)cc2)CCOCC1` [Example 699], the figures for the IC50 at MMP-2, at MMP-1 and on MMP-13 were 455 nM, above 10000 nM and 50 nM, respectively.
As for `Cc1cccc(COC2CCC(Oc3ccc(S(=O)(=O)C4(C(=O)NO)CCOCC4)cc3)C2)c1` (stereo not drawn) [Example 706], the IC50 on MMP-2 was 40 nM; on MMP-1, above 10000 nM; on MMP-13 it was 4.3 nM.
`O=C(NO)C1(S(=O)(=O)c2ccc(N3CCC(SCc4ccccc4)CC3)cc2)CCOCC1` [Example 707]: the IC50 was 9 nM on MMP-2, above 10000 nM on MMP-1 and 2.3 nM on MMP-13.
Regarding `O=C(NO)C1(S(=O)(=O)c2ccc(N3CCCN(c4ccc(OC(F)(F)F)cc4)CC3)cc2)CCOCC1` [Example 708], the IC50 at MMP-2 is 3000 nM; at MMP-1, above 10000 nM; at MMP-13 it was 114 nM.
For the compound `O=C(NO)C1(S(=O)(=O)c2ccc(OC3CCC(OCc4cccc(OC(F)(F)F)c4)C3)cc2)CCOCC1` (stereo not drawn) [Example 714], the IC50 was 420 nM on MMP-2, above 10000 nM at MMP-1 and 28.8 nM on MMP-13.
For `O=C(NO)C1(S(=O)(=O)c2ccc(N3CCC(Cc4ccccc4)CC3)cc2)CCOCC1` [Example 720], the IC50 at MMP-2 is 36.9 nM; at MMP-1, above 10000 nM; at MMP-13 it was 4.5 nM.
`O=C(c1cc(F)cc(F)c1)C1CCN(c2ccc(S(=O)(=O)C3(C(=O)NO)CCOCC3)cc2)CC1` [Example 724]: the results for the IC50 on MMP-2, at MMP-1 and at MMP-13 were 300 nM, above 10000 nM and 28.6 nM, respectively.
Regarding `O=C(c1cccc(OC(F)(F)F)c1)C1CCN(c2ccc(S(=O)(=O)C3(C(=O)NO)CCOCC3)cc2)CC1` [Example 725], the IC50 on MMP-2 is 210 nM; on MMP-1, above 10000 nM; on MMP-13 it was 25.1 nM.
Regarding `O=C(c1ccc(OC(F)(F)F)cc1)C1CCN(c2ccc(S(=O)(=O)C3(C(=O)NO)CCOCC3)cc2)CC1` [Example 726], the IC50 was 250 nM on MMP-2, above 10000 nM at MMP-1 and 15.8 nM at MMP-13.
Regarding `O=C(c1cccc(C(F)(F)F)c1)C1CCN(c2ccc(S(=O)(=O)C3(C(=O)NO)CCOCC3)cc2)CC1` [Example 727], the values for the IC50 on MMP-2, on MMP-1 and at MMP-13 were 240 nM, above 10000 nM and 34.9 nM, respectively.
The like results for `O=C(c1cccc(F)c1)C1CCN(c2ccc(S(=O)(=O)C3(C(=O)NO)CCOCC3)cc2)CC1` [Example 728] were, in that order, 106 nM, above 10000 nM and 9.4 nM.
As for `O=C(c1ccc(C(F)(F)F)cc1)C1CCN(c2ccc(S(=O)(=O)C3(C(=O)NO)CCOCC3)cc2)CC1` [Example 729], the IC50 is 240 nM on MMP-2, above 10000 nM on MMP-1 and 14.8 nM on MMP-13.
With `Cc1cc(C)cc(C(=O)C2CCN(c3ccc(S(=O)(=O)C4(C(=O)NO)CCOCC4)cc3)CC2)c1` [Example 730], the IC50 at MMP-2 is 3000 nM; on MMP-1, above 10000 nM; at MMP-13 it was 37 nM.
As to `CCc1cccc(C(=O)C2CCN(c3ccc(S(=O)(=O)C4(C(=O)NO)CCOCC4)cc3)CC2)c1` [Example 732], the IC50 on MMP-2 was 590 nM; on MMP-1, above 10000 nM; at MMP-13, 3.1 nM.
As for `CCc1ccc(C(=O)C2CCN(c3ccc(S(=O)(=O)C4(C(=O)NO)CCOCC4)cc3)CC2)cc1` [Example 733], the IC50 was 270 nM at MMP-2, above 10000 nM on MMP-1 and 1.6 nM at MMP-13.
On the same counts, the results for `COc1ccc(C(=O)C2CCN(c3ccc(S(=O)(=O)C4(C(=O)NO)CCOCC4)cc3)CC2)cc1F` [Example 735] are 800 nM, above 10000 nM and 9 nM.
The like results for `Cc1ccc(C(=O)C2CCN(c3ccc(S(=O)(=O)C4(C(=O)NO)CCOCC4)cc3)CC2)cc1F` [Example 736] were, in that order, 145 nM, above 10000 nM and 0.9 nM.
With `Cc1ccc(C(=O)C2CCN(c3ccc(S(=O)(=O)C4(C(=O)NO)CCOCC4)cc3)CC2)cc1C` [Example 737], the values for the IC50 at MMP-2, at MMP-1 and at MMP-13 were 1280 nM, above 10000 nM and 3 nM, respectively.
As to `O=C(c1ccc(C(F)(F)F)c(F)c1)C1CCN(c2ccc(S(=O)(=O)C3(C(=O)NO)CCOCC3)cc2)CC1` [Example 738], the IC50 was 270 nM at MMP-2, above 10000 nM at MMP-1 and 22 nM at MMP-13.
With `COc1ccccc1COC1CCC(Oc2ccc(S(=O)(=O)C3(C(=O)NO)CCOCC3)cc2)C1` (stereo not drawn) [Example 740], the results for the IC50 on MMP-2, on MMP-1 and on MMP-13 were 175 nM, above 10000 nM and 61 nM, respectively.
Take `COc1ccccc1COC1CCC(Oc2ccc(S(=O)(=O)C3(C(=O)NO)CCOCC3)cc2)C1` (stereo not drawn) [Example 741]: the results for the IC50 at MMP-2, at MMP-1 and at MMP-13 were 125 nM, above 10000 nM and 50 nM, respectively.
As to `O=C(NC1CCN(c2ccc(S(=O)(=O)C3(C(=O)NO)CCOCC3)cc2)CC1)c1ccc(OC(F)(F)F)cc1` [Example 752], the figures for the IC50 on MMP-2, at MMP-1 and on MMP-13 were 271 nM, above 10000 nM and 14.8 nM, respectively.
As to `CCCCCC(=O)C1CCN(c2ccc(S(=O)(=O)C3(C(=O)NO)CCOCC3)cc2)CC1` [Example 755], the half-inhibitory concentration (IC50) on MMP-2 was 20 nM; on MMP-1, above 10000 nM; on MMP-13 it was 2.2 nM.
Consider `CC(C)CC(=O)C1CCN(c2ccc(S(=O)(=O)C3(C(=O)NO)CCOCC3)cc2)CC1` [Example 756], for which the results for the IC50 at MMP-2, on MMP-1 and on MMP-13 were 28.8 nM, above 10000 nM and 7 nM, respectively.
`CCCCC(=O)C1CCN(c2ccc(S(=O)(=O)C3(C(=O)NO)CCOCC3)cc2)CC1` [Example 757]: the IC50 is 28.8 nM at MMP-2, above 10000 nM on MMP-1 and 3.3 nM on MMP-13.
Take `C=CCCC(=O)C1CCN(c2ccc(S(=O)(=O)C3(C(=O)NO)CCOCC3)cc2)CC1` [Example 758]: the IC50 on MMP-2 is 34.7 nM; at MMP-1 it was above 10000 nM; at MMP-13, 5 nM.
Regarding `C=C(C)CC(=O)C1CCN(c2ccc(S(=O)(=O)C3(C(=O)NO)CCOCC3)cc2)CC1` [Example 759], the IC50 was 60.8 nM on MMP-2, above 10000 nM at MMP-1 and 3 nM on MMP-13.
`CC(C)(Cl)CC(=O)C1CCN(c2ccc(S(=O)(=O)C3(C(=O)NO)CCOCC3)cc2)CC1` [Example 760]: the IC50 on MMP-2 is 25.4 nM; on MMP-1 it was above 10000 nM; on MMP-13, 6 nM.
In the case of `C/C=C/CC(=O)C1CCN(c2ccc(S(=O)(=O)C3(C(=O)NO)CCOCC3)cc2)CC1` [Example 761], the IC50 is 41.8 nM at MMP-2, above 10000 nM at MMP-1 and 5 nM at MMP-13.
Consider `O=C(NO)C1(S(=O)(=O)c2ccc([C@H]3CC[C@@H](c4ccccc4)CC3)cc2)CCOCC1` [Example 781], for which the IC50 is 5100 nM at MMP-2, above 10000 nM at MMP-1 and 800 nM at MMP-13.
With `O=C(NO)C1(S(=O)(=O)c2ccc([C@H]3CC[C@H](c4ccccc4)CC3)cc2)CCOCC1` [Example 782], the IC50 is 100 nM at MMP-2, above 10000 nM at MMP-1 and 21.1 nM at MMP-13.
For the compound `CN(C)c1ccc(C(=O)C2CCN(c3ccc(S(=O)(=O)C4(C(=O)NO)CCOCC4)cc3)CC2)cc1` [Example 784], the IC50 at MMP-2 is 4500 nM; on MMP-1 it was above 10000 nM; at MMP-13 it was 6 nM.
In the case of `C=Cc1cccc(C(=O)C2CCN(c3ccc(S(=O)(=O)C4(C(=O)NO)CCOCC4)cc3)CC2)c1` [Example 786], the IC50 is 700 nM on MMP-2, above 10000 nM on MMP-1 and 3.7 nM on MMP-13.
